From patent US5284999A, “DNA encoding a pituitary-specific thyroid hormone receptor” (Brigham and Women's Hospital, priority 1993, dated 1994)

Tested on: r-ErbAβ-2 protein (PSTHR, pituitary-specific thyroid hormone receptor)
Test: Competition experiments with thyroid hormone analogs on r-ErbAβ-2 protein
Format: binding, rat

affinity of the r-ErbAβ-2 protein (rank order among analogs): greatest
SMILES: O=C(O)Cc1cc(I)c(Oc2ccc(O)c(I)c2)c(I)c1 [triac, 3,5,3'-triiodothyrocetic acid]
